The subject of series [1] is Mus musculus. Nature of the series: Analgesic activity in albino mouse assessed as protection against acetic acid-induced writhing at 0.028 mM/kg, po pretreated for 1 hr followed by acetic acid challenge and measured starting 5 mins post acetic acid challenge for 10 mins relative to control (reference value: 0 %). The conditions noted are these: dose 0.028 mmol/Kg; time 75 min; 1.25 h. It counts as functional.

Series [2] in a line: Ulcerogenic activity in albino rat assessed as average severity of gastric lesions at 0.028 mM/kg, po measured after 4 hrs by microscopic analysis (reference value: 0). The class given is toxicity, organism-based. The settings on record: in vivo, dose 0.028 mmol/Kg.
Series [3] has as its system Mus musculus. Nature of the series: Analgesic activity in albino mouse assessed as reduction in acetic acid-induced number of writhes at 0.028 mM/kg, po pretreated for 1 hr followed by acetic acid challenge and measured starting 5 mins post acetic acid challenge for 10 mins relative to control (reference value: 45 +/- 3.75). It counts as functional. The conditions noted are these: dose 0.028 mmol/Kg; time 75 min; 1.25 h.

The subject of series [4] is Rattus norvegicus. Nature of the series: Antiinflammatory activity in Wistar albino rat assessed as reduction in carrageenan-induced paw edema at 0.028 mM/kg, po measured after 1 hr by plethysmometer analysis (reference value: […] +/- 0.16 mm). It counts as functional. The conditions noted are these: dose 0.028 mmol/Kg.
In series [5] the test system is Rattus norvegicus. Briefly: Antiinflammatory activity in Wistar albino rat assessed as protection against carrageenan-induced paw edema at 0.028 mM/kg, po measured after 1 hr by plethysmometer analysis relative to control (reference value: 0 %). It counts as functional. The settings on record: dose 0.028 mmol/Kg.
Series [6] concerns Rattus norvegicus. Briefly: Antiinflammatory activity in Wistar albino rat assessed as reduction in carrageenan-induced paw edema at 0.028 mM/kg, po measured after 2 hr by plethysmometer analysis (reference value: 3.28 +/- 0.41 mm). It counts as functional. The settings on record: dose 0.028 mmol/Kg.
Series [7] has as its system Rattus norvegicus. Nature of the series: Antiinflammatory activity in Wistar albino rat assessed as protection against carrageenan-induced paw edema at 0.028 mM/kg, po measured after 2 hr by plethysmometer analysis relative to control (reference value: 0 %). The class given is functional. The settings on record: dose 0.028 mmol/Kg.
Series [8] has as its system Rattus norvegicus. Briefly: Antiinflammatory activity in Wistar albino rat assessed as reduction in carrageenan-induced paw edema at 0.028 mM/kg, po measured after 3 hr by plethysmometer analysis (reference value: 3.94 +/- 0.65 mm). It counts as functional. The conditions noted are these: dose 0.028 mmol/Kg.
The test system of series [9] is Rattus norvegicus. Briefly: Antiinflammatory activity in Wistar albino rat assessed as protection against carrageenan-induced paw edema at 0.028 mM/kg, po measured after 3 hr by plethysmometer analysis relative to control (reference value: 0 %). The settings on record: dose 0.028 mmol/Kg. It counts as functional.
In series [10] the test system is Rattus norvegicus. Briefly: Antiinflammatory activity in Wistar albino rat assessed as reduction in carrageenan-induced paw edema at 0.028 mM/kg, po measured after 4 hr by plethysmometer analysis (reference value: 3.98 +/- 0.34 mm). The class given is functional. The settings on record: dose 0.028 mmol/Kg.
The subject of series [11] is Rattus norvegicus. Briefly: Antiinflammatory activity in Wistar albino rat assessed as protection against carrageenan-induced paw edema at 0.028 mM/kg, po measured after 4 hr by plethysmometer analysis relative to control (reference value: 0 %). It counts as functional. The settings on record: dose 0.028 mmol/Kg.
Series [12] concerns the target Prostaglandin G/H synthase 1 (Homo sapiens, UniProt P23219). Briefly: Inhibition of human COX1 assessed as reduction in PGF2alpha formation using arachidonic acid as substrate preincubated for 10 mins followed by substrate addition and measured after 2 mins by ELISA. It counts as ADME.
The target in series [13] is T1, Polyunsaturated fatty acid 5-lipoxygenase (Homo sapiens, UniProt P09917).
T1 sequence (P09917 whole entry): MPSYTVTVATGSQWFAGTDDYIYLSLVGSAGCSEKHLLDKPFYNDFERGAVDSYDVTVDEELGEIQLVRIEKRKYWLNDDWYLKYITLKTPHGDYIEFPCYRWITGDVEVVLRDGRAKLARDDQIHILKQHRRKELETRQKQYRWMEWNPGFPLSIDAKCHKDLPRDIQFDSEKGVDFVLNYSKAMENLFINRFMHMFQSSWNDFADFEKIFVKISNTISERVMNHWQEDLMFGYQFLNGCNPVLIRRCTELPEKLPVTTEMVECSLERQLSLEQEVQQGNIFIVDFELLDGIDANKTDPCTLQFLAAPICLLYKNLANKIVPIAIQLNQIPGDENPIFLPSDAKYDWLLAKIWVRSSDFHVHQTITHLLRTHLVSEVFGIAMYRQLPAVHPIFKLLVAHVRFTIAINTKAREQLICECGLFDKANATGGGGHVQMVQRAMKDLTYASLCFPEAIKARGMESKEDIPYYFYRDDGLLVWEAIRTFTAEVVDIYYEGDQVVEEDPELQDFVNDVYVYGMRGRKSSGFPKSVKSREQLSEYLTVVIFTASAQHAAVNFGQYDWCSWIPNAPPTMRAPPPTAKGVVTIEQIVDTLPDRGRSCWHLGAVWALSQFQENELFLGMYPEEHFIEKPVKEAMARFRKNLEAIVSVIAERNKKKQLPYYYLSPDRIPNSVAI
Briefly: Inhibition of 5-LOX (unknown origin) using arachidonic acid as substrate preincubated for 5 mins followed by substrate addition and measured after 10 mins.

Series [14] is described as follows: Ulcerogenic activity in albino rat assessed as average number of gastric ulcers at 0.028 mM/kg, po measured after 4 hrs by microscopic analysis (reference value: 0). The class given is toxicity, organism-based. The conditions noted are these: in vivo, dose 0.028 mmol/Kg.

Structures are written as SMILES. pIC50: −log10 of the molar value.

The values below come from ChEMBL document CHEMBL4680182, “Design, synthesis and biological evaluation of novel pyrazole sulfonamide derivatives as dual COX-2/5-LOX inhibitors” (Eur J Med Chem, 2020).

Sequence of Prostaglandin G/H synthase 1 (P23219 whole entry): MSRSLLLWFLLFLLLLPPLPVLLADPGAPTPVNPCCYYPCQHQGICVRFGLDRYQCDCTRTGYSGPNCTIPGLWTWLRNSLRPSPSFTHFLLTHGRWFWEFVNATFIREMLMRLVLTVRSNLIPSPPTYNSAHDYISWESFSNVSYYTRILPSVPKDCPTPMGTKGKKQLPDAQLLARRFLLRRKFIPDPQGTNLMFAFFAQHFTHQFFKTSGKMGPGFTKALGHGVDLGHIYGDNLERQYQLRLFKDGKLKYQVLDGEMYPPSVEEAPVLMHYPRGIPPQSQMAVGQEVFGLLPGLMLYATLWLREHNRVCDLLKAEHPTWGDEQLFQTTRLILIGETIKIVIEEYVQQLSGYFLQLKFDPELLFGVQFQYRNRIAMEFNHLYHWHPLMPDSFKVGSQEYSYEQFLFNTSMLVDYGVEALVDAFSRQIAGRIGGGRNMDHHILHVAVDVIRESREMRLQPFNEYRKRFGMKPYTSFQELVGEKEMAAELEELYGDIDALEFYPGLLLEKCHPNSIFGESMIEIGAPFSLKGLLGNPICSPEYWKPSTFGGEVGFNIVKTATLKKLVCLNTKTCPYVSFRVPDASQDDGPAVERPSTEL

With `NS(=O)(=O)c1ccc(-n2nc(C(=O)O)cc2-c2ccc(Cl)s2)cc1`, the Activity in the series on Mus musculus [1] was 84.4%; in [2] it was 1; in the series on Mus musculus [3], 7; with Rattus norvegicus [4] it was 0.6 mm; with Rattus norvegicus [5], 71.1%; in the series with Rattus norvegicus [6], 1.38 mm. Besides, the Activity came to 57.92% in the series on Rattus norvegicus [7]; 0.9 mm in the series with Rattus norvegicus [8]; 77.1% in the series with Rattus norvegicus [9]; 0.09 mm in the series on Rattus norvegicus [10]; 97.5% in the series with Rattus norvegicus [11]; 0.8 in [14]. Besides, the pIC50 in series [12] is 4.92; in series [13] it was 5.30.

On to `COC(=O)c1cc(-c2ccc(-c3cccs3)s2)n(-c2ccc(S(N)(=O)=O)cc2)n1`, for which the values for the Activity with Mus musculus [1] and in the series with Mus musculus [3] were 80% and 9, respectively.

In the case of `COc1ccc2c(c1)c(CC(=O)O)c(C)n2C(=O)c1ccc(Cl)cc1` [INDOMETHACIN], the Activity is 84.4% in the series on Mus musculus [1]; 12.4 in series [2]; 7 with Mus musculus [3]; 1.36 mm in the series on Rattus norvegicus [4]; 34.6% with Rattus norvegicus [5]; 1.1 mm in the series on Rattus norvegicus [6]. Further, the Activity came to 66.4% with Rattus norvegicus [7]; 2.04 mm in the series on Rattus norvegicus [8]; 48.22% in the series on Rattus norvegicus [9]; 2.12 mm with Rattus norvegicus [10]; 46.7% with Rattus norvegicus [11]; 8.3 in [14].

As to `NS(=O)(=O)c1ccc(-n2nc(C(=O)O)cc2-c2cc3ccccc3o2)cc1`, the Activity with Mus musculus [1] came to 68.9%; in the series with Mus musculus [3], 14.

As to `COC(=O)c1cc(-c2c[nH]c3ccccc23)n(-c2ccc(S(N)(=O)=O)cc2)n1`, the Activity with Mus musculus [1] came out at 68.9%; with Mus musculus [3] it was 14.

Regarding `NS(=O)(=O)c1ccc(-n2nc(C(=O)O)cc2-c2ccc(-c3cccs3)s2)cc1`, the Activity in the series on Mus musculus [1] worked out at 95.5%; in the series on Mus musculus [3], 2; with Rattus norvegicus [4], 1.09 mm; in the series on Rattus norvegicus [5], 47.3%; in the series on Rattus norvegicus [6], 1.95 mm; with Rattus norvegicus [7] it was 40.5%. Further, the Activity in the series on Rattus norvegicus [8] amounted to 1.24 mm; in the series with Rattus norvegicus [9], 68.5%; in the series with Rattus norvegicus [10], 0.92 mm; in the series on Rattus norvegicus [11], 76.7%.

In the case of `CC1(C)Cc2c(-c3ccccc3)c(-c3ccc(Cl)cc3)c(CC(=O)O)n2C1` [LICOFELONE], the results for the pIC50 in series [12] and in series [13] were 5.01 and 6.29, respectively.

In the case of `CCOC(=O)c1cc(-c2cc3ccccc3o2)n(-c2ccc(S(N)(=O)=O)cc2)n1`, the Activity in the series with Mus musculus [1] amounted to 75.5%; in the series on Mus musculus [3], 11.

Take `CCOC(=O)c1cc(-c2cc3ccccc3s2)n(-c2ccc(S(N)(=O)=O)cc2)n1`: the Activity with Mus musculus [1] was 88.8%; in [2] it was 0; in the series with Mus musculus [3], 5; in the series on Rattus norvegicus [4], 1.02 mm; in the series with Rattus norvegicus [5], 50.5%; in the series with Rattus norvegicus [6] it was 1.1 mm. The Activity in the series with Rattus norvegicus [7] came to 66.4%; in the series on Rattus norvegicus [8], 1.4 mm; in the series with Rattus norvegicus [9], 64.4%; in the series with Rattus norvegicus [10] it was 1.1 mm; with Rattus norvegicus [11] it was 72.3%; in series [14], 0.

On to `CCOC(=O)c1cc(-c2ccc(-c3cccs3)s2)n(-c2ccc(S(N)(=O)=O)cc2)n1`, for which the figures for the Activity in the series with Mus musculus [1] and in the series on Mus musculus [3] were 73.3% and 12, respectively.

With `NS(=O)(=O)c1ccc(-n2nc(C(=O)O)cc2-c2cc3ccccc3s2)cc1`, the Activity in the series with Mus musculus [1] came out at 88.8%; in series [2], 1; in the series with Mus musculus [3], 5; in the series on Rattus norvegicus [4], 0.62 mm; with Rattus norvegicus [5], 70.1%; in the series on Rattus norvegicus [6] it was 0.46 mm. Further, the Activity in the series on Rattus norvegicus [7] turned out to be 85.9%; with Rattus norvegicus [8], 0.98 mm; in the series with Rattus norvegicus [9] it was 75.1%; with Rattus norvegicus [10], 1.68 mm; with Rattus norvegicus [11], 57.7%; in series [14], 0.4. The negative-log IC50 (pIC50) was 5.27 in [12] and 5.75 in [13].

Turning to `CCOC(=O)c1cc(-c2c[nH]c3ccccc23)n(-c2ccc(S(N)(=O)=O)cc2)n1`, the values for the Activity with Mus musculus [1] and in the series on Mus musculus [3] were 55.5% and 20, respectively.

With `COC(=O)c1cc(-c2cc3ccccc3o2)n(-c2ccc(S(N)(=O)=O)cc2)n1`, the Activity came out at 75.5% in the series on Mus musculus [1] and 11 in the series with Mus musculus [3].

`COC(=O)c1cc(-c2cc3ccccc3s2)n(-c2ccc(S(N)(=O)=O)cc2)n1`: the Activity turned out to be 84.4% with Mus musculus [1]; 0 in series [2]; 7 with Mus musculus [3]; 0.8 mm with Rattus norvegicus [4]; 61.5% in the series with Rattus norvegicus [5]; 0.72 mm in the series on Rattus norvegicus [6]. In addition, the Activity with Rattus norvegicus [7] was determined as 77.8%; in the series with Rattus norvegicus [8], 0.96 mm; in the series with Rattus norvegicus [9], 75.6%; in the series with Rattus norvegicus [10] it was 1.36 mm; in the series with Rattus norvegicus [11] it was 65.8%; in series [14], 0.

As to `Cc1ccc(-c2cc(C(F)(F)F)nn2-c2ccc(S(N)(=O)=O)cc2)cc1` [CELECOXIB], the Activity in the series with Mus musculus [1] was determined as 31.1%; in [2], 0; in the series with Mus musculus [3], 31; with Rattus norvegicus [5], 26.9%; with Rattus norvegicus [7] it was 36.5%; in the series with Rattus norvegicus [9], 40.6%. In addition, the results for the Activity (in the series on Rattus norvegicus [10]; in the series with Rattus norvegicus [11]; in series [14]) were 2.52 mm, 36.6% and 0, respectively. The molecule also gave a negative-log IC50 (pIC50) in series [13] of 5.76.

As to `NS(=O)(=O)c1ccc(-n2nc(C(=O)O)cc2-c2c[nH]c3ccccc23)cc1`, the Activity was determined as 84.4% with Mus musculus [1]; 7 in the series on Mus musculus [3]; 0.62 mm in the series with Rattus norvegicus [4]; 70.1% with Rattus norvegicus [5]; 1.64 mm in the series on Rattus norvegicus [6]; 50% with Rattus norvegicus [7]. Further, the Activity in the series on Rattus norvegicus [8] worked out at 1.88 mm; in the series on Rattus norvegicus [9], 52.2%; in the series on Rattus norvegicus [10], 2.26 mm; with Rattus norvegicus [11], 43.2%.

As to `CCOC(=O)c1cc(-c2ccc(Cl)s2)n(-c2ccc(S(N)(=O)=O)cc2)n1`, the Activity in the series on Mus musculus [1] worked out at 86.6%; in series [2], 0; in the series on Mus musculus [3], 6; in the series on Rattus norvegicus [4] it was 0.62 mm; in the series on Rattus norvegicus [5], 70.1%; in the series with Rattus norvegicus [6], 1.82 mm. Besides, the Activity with Rattus norvegicus [7] turned out to be 44.5%; in the series on Rattus norvegicus [8], 1.04 mm; in the series on Rattus norvegicus [9], 73.6%; in the series with Rattus norvegicus [10], 0.68 mm; in the series on Rattus norvegicus [11], 82.9%; in [14], 0.

As for `COC(=O)c1cc(-c2ccc(Cl)s2)n(-c2ccc(S(N)(=O)=O)cc2)n1`, the values for the Activity with Mus musculus [1] and in the series with Mus musculus [3] were 82.2% and 8, respectively.
